These results are taken from ChEMBL document CHEMBL4602723, “Stalobacin: Discovery of Novel Lipopeptide Antibiotics with Potent Antibacterial Activity against Multidrug-Resistant Bacteria” (J Med Chem, 2020).

Assay [1] relates to Enterococcus faecium. Put plainly: Antibacterial activity against Vancomycin-resistant Enterococcus faecium SR7940 (VanA) assessed as inhibition of bacterial growth incubated for 20 hrs by microdilution broth method. The assay is classed as functional. The note with it: SR7940, 20 h. On the technique in general: In broth dilution the organism is exposed to a series of concentrations in liquid medium.

Assay [2] concerns Staphylococcus aureus. Put plainly: Antibacterial activity against Staphylococcus aureus RN4220 assessed as inhibition of bacterial growth incubated for 20 hrs by microdilution broth method. The assay is classed as functional. The note with it: RN4220, 20 h.
In assay [3] the test system is Staphylococcus aureus. Description: Antibacterial activity against Vancomycin-resistant Staphylococcus aureus HIP11983 assessed as inhibition of bacterial growth incubated for 20 hrs by microdilution broth method. The format is functional. The settings on record: HIP11983, 20 h.
The subject of assay [4] is Staphylococcus aureus. Put plainly: Antibacterial activity against Vancomycin-resistant Staphylococcus aureus HIP11714 assessed as inhibition of bacterial growth incubated for 20 hrs by microdilution broth method. The format is functional. The settings on record: HIP11714, 20 h.
The subject of assay [5] is Enterococcus faecium. Description: Antibacterial activity against Vancomycin-resistant Enterococcus faecium SRM1101 (c_VanB) assessed as inhibition of bacterial growth incubated for 20 hrs by microdilution broth method. The assay is classed as functional. The settings on record: SRM1101, 20 h.
Assay [6] deals with Streptococcus pneumoniae. Put plainly: Antibacterial activity against Streptococcus pneumoniae type 1 assessed as inhibition of bacterial growth incubated for 20 hrs by microdilution broth method. The assay is classed as functional. The note with it: type 1, 20 h.
For assay [7], the system named is Enterococcus faecalis. Put plainly: Antibacterial activity against Enterococcus faecalis SR1004 assessed as inhibition of bacterial growth incubated for 20 hrs by microdilution broth method. The format is functional. The settings on record: SR1004, 20 h.
Assay [8] deals with Enterococcus faecium. Description: Antibacterial activity against Enterococcus faecium SR16972 assessed as inhibition of bacterial growth incubated for 20 hrs by microdilution broth method. The settings on record: SR16972, 20 h. The format is functional.
The subject of assay [9] is Staphylococcus aureus. Description: Antibacterial activity against Staphylococcus aureus SMITH assessed as inhibition of bacterial growth incubated for 20 hrs by microdilution broth method. The assay is classed as functional.
Assay [10] concerns Streptococcus pneumoniae. Description: Antibacterial activity against Streptococcus pneumoniae tupelo (VTSP) assessed as inhibition of bacterial growth incubated for 20 hrs by microdilution broth method. The assay is classed as functional.
Assay [11] deals with Streptococcus pneumoniae. Put plainly: Antibacterial activity against Streptococcus pneumoniae SR11031 (PRSP) assessed as inhibition of bacterial growth incubated for 20 hrs by microdilution broth method. The format is functional. The note with it: SR11031, 20 h.
Assay [12] has as its system Enterococcus faecalis. Put plainly: Antibacterial activity against Vancomycin-resistant Enterococcus faecalis SR23630 (VanB) assessed as inhibition of bacterial growth incubated for 20 hrs by microdilution broth method. The assay is classed as functional. The settings on record: SR23630, 20 h.
The subject of assay [13] is Enterococcus faecium. Put plainly: Antibacterial activity against Vancomycin-resistant Enterococcus faecium SR23598 (VanB) assessed as inhibition of bacterial growth incubated for 20 hrs by microdilution broth method. The format is functional. The note with it: SR23598, 20 h.
In assay [14] the test system is Staphylococcus aureus. Put plainly: Antibacterial activity against methicillin-resistant Staphylococcus aureus SR3637 assessed as inhibition of bacterial growth incubated for 20 hrs by microdilution broth method. The format is functional. The note with it: SR3637, 20 h.
Assay [15] has as its system Enterococcus faecalis. Description: Antibacterial activity against Vancomycin-resistant Enterococcus faecalis SR7914 (VanA) assessed as inhibition of bacterial growth incubated for 20 hrs by microdilution broth method. The format is functional. The settings on record: SR7914, 20 h.
Assay [16] relates to Escherichia coli. Put plainly: Antibacterial activity against Escherichia coli JC2 assessed as inhibition of bacterial growth incubated for 20 hrs by microdilution broth method. The assay is classed as functional. The note with it: JC2, 20 h.
The test system of the next assay is Klebsiella pneumoniae. Put plainly: Antibacterial activity against Klebsiella pneumoniae SR1 assessed as inhibition of bacterial growth incubated for 20 hrs by microdilution broth method. The format is functional. The note with it: SR1, 20 h.
Assay [17] deals with Staphylococcus aureus. Put plainly: Induction of morphological changes in Staphylococcus aureus RN4220 assessed as inflation of bacterial cell body. The format is functional, organism-based.
Assay [18] has as its system Staphylococcus aureus. Put plainly: Potency index, ratio of MIC for vancomycin to MIC for test compound for antibacterial activity against methicillin-resistant Staphylococcus aureus SR3637. The format is functional.
Another assay deals with L1210. Description: Cytotoxicity in mouse L1210 cells assessed as reduction in cell viability. The assay is classed as cell-based.
Assay [19] concerns Staphylococcus aureus. Put plainly: Potency index, ratio of MIC for linezolid to MIC for test compound for antibacterial activity against methicillin-resistant Staphylococcus aureus SR3637. The format is functional.
Assay [20] has as its system Staphylococcus aureus. Put plainly: Potency index, ratio of MIC for telavancin to MIC for test compound for antibacterial activity against methicillin-resistant Staphylococcus aureus SR3637. The assay is classed as functional.
Another assay relates to P388. Description: Cytotoxicity in mouse P388 cells assessed as reduction in cell viability. The assay is classed as cell-based.
Assay [21] has as its system Escherichia coli. Put plainly: Induction of morphological changes in Escherichia coli JC2 assessed as inflation of bacterial cell body. The assay is classed as functional, organism-based.

≈ marks a conversion by molar mass, not a printed value. Calls of active or inactive are those of the source. No cut-off for these calls is given here. Bounds are passed on as bounds.

Broadly, the MIC is the least concentration at which growth counts as inhibited. With `CCCCCCCCCCNCCN[C@@]1(C)C[C@H](O[C@H]2[C@H](Oc3c4cc5cc3Oc3ccc(cc3Cl)[C@@H](O)[C@@H](NC(=O)[C@@H](CC(C)C)NC)C(=O)N[C@@H](CC(N)=O)C(=O)N[C@H]5C(=O)N[C@H]3C(=O)N[C@H](C(=O)N[C@H](C(=O)O)c5cc(O)c(CNCP(=O)(O)O)c(O)c5-c5cc3ccc5O)[C@H](O)c3ccc(c(Cl)c3)O4)O[C@H](CO)[C@@H](O)[C@@H]2O)O[C@@H](C)[C@H]1O` [TELAVANCIN], the MIC with Enterococcus faecium [1] is 8 µg/mL (≈ 4.56 µM); in the assay on Staphylococcus aureus [2], 0.5 µg/mL (≈ 0.285 µM); in the assay with Staphylococcus aureus [3], 4 µg/mL (≈ 2.28 µM); in the assay with Staphylococcus aureus [4] it was 4 µg/mL (≈ 2.28 µM); in the assay with Enterococcus faecium [5], 8 µg/mL (≈ 4.56 µM); with Streptococcus pneumoniae [6], no more than 0.063 µg/mL. Moreover, the MIC in the assay with Enterococcus faecalis [7] is 1 µg/mL (≈ 0.57 µM); with Enterococcus faecium [8] it was 0.5 µg/mL (≈ 0.285 µM); in the assay with Staphylococcus aureus [9], 0.5 µg/mL (≈ 0.285 µM); in the assay with Streptococcus pneumoniae [10] it was no more than 0.063 µg/mL; in the assay with Streptococcus pneumoniae [11], no more than 0.063 µg/mL; in the assay with Enterococcus faecalis [12] it was 1 µg/mL (≈ 0.57 µM). Besides, the figures for the minimal inhibitory concentration (MIC) in the assay on Enterococcus faecium [13], in the assay on Staphylococcus aureus [14] and with Enterococcus faecalis [15] were 0.5 µg/mL (≈ 0.285 µM), 1 µg/mL (≈ 0.57 µM) and 4 µg/mL (≈ 2.28 µM), respectively.

For `CCCCCC/C=C\CCCCC[C@@H]1C[C@H]1/C=C/C(O)C(=O)N[C@H](C(=O)N(C)[C@@H](CC(=O)O)C(=O)N(COC(C)(CC)C(NC(=O)C(NC(=O)[C@@H](N)CC(=O)O)C(O)C(O)CNC(=N)N)C(=O)NCC(=O)N[C@@H](CO)C(=O)O)[C@@]12C[C@@H]1CNC2=O)[C@H](O)C(=O)O` (stereo partly drawn), the minimal inhibitory concentration (MIC) was found to be 2 µg/mL (≈ 1.56 µM) in the assay with Enterococcus faecium [1]; 0.5 µg/mL (≈ 0.39 µM) with Staphylococcus aureus [2]; 1 µg/mL (≈ 0.779 µM) with Staphylococcus aureus [3]; 0.5 µg/mL (≈ 0.39 µM) in the assay with Staphylococcus aureus [4]; 1 µg/mL (≈ 0.779 µM) in the assay with Enterococcus faecium [5]; 0.25 µg/mL (≈ 0.195 µM) in the assay with Streptococcus pneumoniae [6]. Besides, the MIC with Enterococcus faecalis [7] is greater than 64 µg/mL; with Enterococcus faecium [8], 4 µg/mL (≈ 3.12 µM); in the assay with Staphylococcus aureus [9], 0.5 µg/mL (≈ 0.39 µM); with Streptococcus pneumoniae [10] it was no more than 0.004 µg/mL; with Escherichia coli [16], 4 µg/mL (≈ 3.12 µM); with Streptococcus pneumoniae [11], 0.25 µg/mL (≈ 0.195 µM). Also, the MIC in the assay on Enterococcus faecalis [12] was greater than 64 µg/mL; in the assay with Enterococcus faecium [13], 1 µg/mL (≈ 0.779 µM); with Staphylococcus aureus [14], 1 µg/mL (≈ 0.779 µM); with Enterococcus faecalis [15], greater than 64 µg/mL; in the assay with Klebsiella pneumoniae it was 2 µg/mL (≈ 1.56 µM).

In the case of `CC(=O)NC[C@H]1CN(c2ccc(N3CCOCC3)c(F)c2)C(=O)O1` [LINEZOLID], the MIC with Enterococcus faecium [1], with Enterococcus faecium [5], with Enterococcus faecium [8] and with Enterococcus faecium [13] was 2 µg/mL (≈ 5.93 µM) in each case.

The term IC50 denotes the concentration needed to halve the response being measured. Take `CCCCCC/C=C\CCCCC[C@@H]1C[C@H]1/C=C/C(O)C(=O)N[C@H](C(=O)N(C)[C@@H](CC(=O)O)C(=O)N(COC(C)(CC)C(NC(=O)C(NC(=O)[C@@H](N)CC(=O)O)C(O)C(O)CNC(=N)N)C(=O)NCC(=O)N[C@@H](CO)C(=O)O)[C@@]12C[C@@H]1CN(C(=N)N)C2=O)[C@H](O)C(=O)O` (stereo partly drawn): the outcome in the assay on Staphylococcus aureus [17] and in the assay with Escherichia coli [21] was Active. In addition, the minimum inhibitory concentration (MIC) in the assay on Enterococcus faecium [1] is 0.004 µg/mL (≈ 0.00302 µM); in the assay with Staphylococcus aureus [2], 0.004 µg/mL (≈ 0.00302 µM); with Staphylococcus aureus [3], 0.004 µg/mL (≈ 0.00302 µM); with Staphylococcus aureus [4] it was 0.004 µg/mL (≈ 0.00302 µM); in the assay with Enterococcus faecium [5], 0.004 µg/mL (≈ 0.00302 µM); in the assay on Streptococcus pneumoniae [6], no more than 0.004 µg/mL. Besides, the MIC with Enterococcus faecalis [7] is 0.008 µg/mL (≈ 0.00604 µM); in the assay with Enterococcus faecium [8], 0.004 µg/mL (≈ 0.00302 µM); in the assay with Staphylococcus aureus [9], 0.004 µg/mL (≈ 0.00302 µM); in the assay with Streptococcus pneumoniae [10] it was no more than 0.004 µg/mL; in the assay on Escherichia coli [16], 4 µg/mL (≈ 3.02 µM); in the assay on Streptococcus pneumoniae [11] it was no more than 0.004 µg/mL. The MIC with Enterococcus faecalis [12] turned out to be 0.004 µg/mL (≈ 0.00302 µM); in the assay with Enterococcus faecium [13] it was 0.004 µg/mL (≈ 0.00302 µM); in the assay with Staphylococcus aureus [14], 0.008 µg/mL (≈ 0.00604 µM); in the assay with Enterococcus faecalis [15], 0.016 µg/mL (≈ 0.0121 µM); with Klebsiella pneumoniae, 1 µg/mL (≈ 0.754 µM). Further, the Ratio with Staphylococcus aureus [18], with Staphylococcus aureus [19] and in the assay with Staphylococcus aureus [20] was 125 - 250 in each case. Besides, the IC50 with L1210 and in the assay on P388 was greater than 12.5 µg/mL each time.

For the molecule `CN[C@H](CC(C)C)C(=O)N[C@H]1C(=O)N[C@@H](CC(N)=O)C(=O)N[C@H]2C(=O)N[C@H]3C(=O)N[C@H](C(=O)N[C@H](C(=O)O)c4cc(O)cc(O)c4-c4cc3ccc4O)[C@H](O)c3ccc(c(Cl)c3)Oc3cc2cc(c3O[C@@H]2O[C@H](CO)[C@@H](O)[C@H](O)[C@H]2O[C@H]2C[C@](C)(N)[C@H](O)[C@H](C)O2)Oc2ccc(cc2Cl)[C@H]1O` [VANCOMYCIN], the MIC in the assay with Enterococcus faecium [1] is greater than 64 µg/mL; in the assay on Staphylococcus aureus [3] it was greater than 64 µg/mL; in the assay with Staphylococcus aureus [4] it was greater than 64 µg/mL; in the assay on Enterococcus faecium [5] it was greater than 64 µg/mL; with Streptococcus pneumoniae [6], 0.5 µg/mL (≈ 0.345 µM); with Enterococcus faecalis [7], 1 µg/mL (≈ 0.69 µM). For the same molecule, the MIC was 0.25 µg/mL (≈ 0.173 µM) in the assay on Streptococcus pneumoniae [10]; greater than 64 µg/mL in the assay with Escherichia coli [16]; 0.25 µg/mL (≈ 0.173 µM) with Streptococcus pneumoniae [11]; 32 µg/mL (≈ 22.1 µM) with Enterococcus faecalis [12]; greater than 64 µg/mL in the assay with Enterococcus faecium [13]; greater than 64 µg/mL in the assay with Enterococcus faecalis [15]. The minimal inhibitory concentration (MIC) in the assay on Klebsiella pneumoniae was greater than 64 µg/mL.
